This note sets out measurements from patent KR20210134284A, “분갈 추출물 또는 이로부터 유래된 화합물을 포함하는 피부 개선용 조성물” (주식회사 엘지생활건강, priority 2018, dated 2020).

A short description of assay [1]: Anti-glycation activity using L-arginine and glucose. As to conditions: 70℃, 4 h, 420 nm.
The subject of assay [2] is RAW264.7 cells, NO production (생쥐의 대식세포인 RAW264.7 세포). Kind of assay: NO production inhibition by GRIESS method in LPS-stimulated RAW264.7 cells (anti-inflammatory). Type of assay: cell-based. As to conditions: Mus musculus, LPS 1 μg, 24 h, read-out: NO production inhibition rate.
For assay [3], the system named is type Ⅰ collagen synthesis in human-derived fibroblasts (제1형 콜라겐; 인간 유래 섬유 아세포). Kind of assay: Type I collagen synthesis promotion in human fibroblasts (PICP EIA kit). It counts as cell-based. As to conditions: 48 h; for type I collagen production amount: negative control 150.2 ng/ml.
Assay [4] in a line: DPPH free radical scavenging (antioxidant). As to conditions: 37℃, 30 min, 520 nm, concentration removing 50% of free radicals.
Assay [5] deals with B-16 mouse melanoma cell (쥐의 멜라노마 세포). Kind of assay: Melanin production inhibition (whitening), absorbance at 400 nm. As to conditions: 72 h, 3 days, relative to control, read-out: total melanin inhibition rate. Type of assay: cell-based.
Setting [6] is: Homo sapiens, Fibroblast, 10 ppm, relative to control, read-out: collagen production increase rate.

For orientation: inhibition means the change of the read-out against control, counted positive when it falls.

The compound `N=C(N)NN` [Aminoguanidine, reference compound] displayed a glycation inhibition rate in assay [1] (55 ppm) of 48.12%.

For the compound `CNC(=N)NCCC[C@H](N)C(=O)O` [L-NMMA, L-NG-monomethylarginine, reference compound], the inhibition at 10 ppm in assay [2] is 30.6%.

Consider `O=C1O[C@H]([C@@H](O)CO)C(O)=C1O` [비타민C, reference compound], for which the “type I collagen production amount” value in assay [3] (50 ppm) was 210.9 ng/mL. Also, the activation at 50 ppm in assay [3] (Homo sapiens, Fibroblast, 50 ppm, relative to control, read-out: collagen production increase rate) was determined as 40.4%. Also, the IC50 in assay [4] was 0.0005 %w/v.

For `OC[C@H]1O[C@@H](Oc2ccc(O)cc2)[C@H](O)[C@@H](O)[C@@H]1O` [알부틴, arbutin, reference compound], the inhibition at 100 ppm in assay [5] (100 ppm) is 47.8%.

`COc1c(O[C@@H]2O[C@H](CO[C@@H]3OC[C@@H](O)[C@H](O)[C@H]3O)[C@@H](O)[C@H](O)[C@H]2O)cc2occ(-c3ccc(O)cc3)c(=O)c2c1O` [화합물 1, tectorigenin 7-O-xylosylglucoside]: the “type I collagen production amount” value in assay [3] (10 ppm) is 202.3 ng/mL. In addition, in assay [3] (setting [6]), the activation at 10 ppm worked out at 34.7%. Further, in assay [2], the inhibition at 100 ppm was found to be 99.5%. Besides, the inhibition at 10 ppm in assay [5] was 48.3%. Also, in assay [4], the IC50 was 0.0015 %w/v. Also, the glycation inhibition rate in assay [1] (10 ppm) is 41.67%.

Consider `COc1c(O[C@@H]2O[C@H](CO)[C@@H](O)[C@H](O)[C@H]2O)cc2occ(-c3ccc(O)cc3)c(=O)c2c1O` [화합물 2, tectoridin], for which the “type I collagen production amount” value in assay [3] (10 ppm) was determined as 221.9 ng/mL. In assay [3] (setting [6]), the activation at 10 ppm was found to be 47.7%. Also, the inhibition at 100 ppm in assay [2] turned out to be 99.5%. Moreover, the inhibition at 10 ppm in assay [5] is 63.1%. In assay [4], this compound had an IC50 of 0.0024 %w/v. The same compound gave a glycation inhibition rate in assay [1] (10 ppm) of 38.95%.

On to `COc1c(O)cc2occ(-c3ccc(O)cc3)c(=O)c2c1O` [화합물 3, tectorigenin], for which the “type I collagen production amount” value in assay [3] (10 ppm) came out at 208.1 ng/mL. Besides, the activation at 10 ppm in assay [3] (setting [6]) was 38.5%. Besides, the inhibition at 10 ppm in assay [2] stood at 51.9%; in assay [5], 32.7%. For the same compound, the IC50 in assay [4] was 0.0012 %w/v. The glycation inhibition rate in assay [1] (10 ppm) was determined as 34.75%.
